These results are taken from ChEMBL document CHEMBL1201862, “PubChem BioAssay data set” (2004).

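Values below derive from 48-hour exposures of cells grown in 96-well plates, with endpoints linearly interpolated between the two concentrations bracketing the appropriate inhibition level. GI50 is the concentration that inhibits growth by half.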 The source made the active and inactive calls. No stated cut-off is given here; in the data, active = GI50 up to about 1.1 µM and inactive = higher. Bounds are passed on as bounds.

Test systems include 786-0; CCRF-CEM; COLO 205; EKVX; HCT-116; HCT-15; HT-29; NCI-H460; OVCAR-8; RPMI-8226; RXF 393; SK-MEL-2; SNB-19; UACC-257; Malme-3M; OVCAR-5; SK-MEL-5; TK-10.
Experiment in all cases: growth of human tumour cells (NCI), 48 h

For the compound `COC12CCC(=O)C=C1c1ccccc1N2C(C)=O` (stereo not drawn), the GI50 in the test on 786-0 is > 100 µM (inactive); in the test on CCRF-CEM it was > 100 µM (inactive); in the test with COLO 205 it was > 100 µM (inactive); in the test on EKVX, > 100 µM (inactive); with HCT-116, > 100 µM (inactive); in the test on HCT-15, greater than 100 µM. In addition, the GI50 with HT-29, in the test on NCI-H460, with OVCAR-8, with RPMI-8226, in the test on RXF 393 and in the test with SK-MEL-2 was > 100 µM (inactive) each time. Further, the GI50 in the test on SNB-19 and in the test on UACC-257 was > 100 µM (inactive) in each case.
As to `O=C(Nc1ccccc1-c1nn(CO)c(=S)n(CO)c1=O)C(F)(F)F`, the GI50 in the test on 786-0, in the test on CCRF-CEM, with COLO 205, with EKVX, with HCT-116 and in the test on HT-29 was > 100 µM (inactive) in each case. The GI50 with Malme-3M, in the test on NCI-H460, in the test on OVCAR-5, with OVCAR-8, with RXF 393 and in the test on SK-MEL-2 was > 100 µM (inactive) throughout. The GI50 with SK-MEL-5 was 31.8 µM (inactive); in the test with SNB-19, > 100 µM (inactive); with TK-10, > 100 µM (inactive).
Regarding `COc1cc(CC(C(=O)O)C(=O)O)c(OC)cc1CC(C(=O)O)C(=O)O`, the GI50 in the test with 786-0 was > 100 µM (inactive); with CCRF-CEM, > 100 µM (inactive); with COLO 205 it was > 100 µM (inactive); with EKVX, > 100 µM (inactive); with HCT-116, > 100 µM (inactive); with HCT-15 it was greater than 100 µM. The GI50 in the test on HT-29, in the test on Malme-3M, in the test with NCI-H460, in the test with OVCAR-5, in the test on OVCAR-8 and in the test on RPMI-8226 was > 100 µM (inactive) each time. The GI50 with RXF 393, in the test on SK-MEL-5, with SNB-19, in the test on TK-10 and with UACC-257 was > 100 µM (inactive) each time.
Turning to `COc1c2c(cc3nc4ccccc4nc13)CCC(C(C)(C)O)C2` (stereo not drawn), the GI50 with 786-0 was > 100 µM (inactive); in the test with CCRF-CEM, 45.1 µM (inactive); in the test with COLO 205, 69 µM (inactive); in the test on EKVX, > 100 µM (inactive); with HCT-116 it was > 100 µM (inactive); in the test on HCT-15 it was greater than 100 µM. Besides, the GI50 in the test on HT-29 is 66.4 µM (inactive); in the test on Malme-3M it was 65.6 µM (inactive); in the test with NCI-H460, > 100 µM (inactive); in the test on OVCAR-5, > 100 µM (inactive); in the test on OVCAR-8, > 100 µM (inactive); in the test on RXF 393 it was > 100 µM (inactive). In addition, the GI50 in the test with SK-MEL-2 was > 100 µM (inactive); with SK-MEL-5, 45.1 µM (inactive); with SNB-19, > 100 µM (inactive); in the test on TK-10, > 100 µM (inactive); in the test on UACC-257 it was > 100 µM (inactive).
On to `O=C1C(O)=C(CN(CCCl)CCCl)C(=O)c2ccccc21`, for which the GI50 with 786-0 is 28.2 µM (inactive); in the test with CCRF-CEM, 42.3 µM (inactive); in the test with EKVX, > 100 µM (inactive); in the test with HCT-116 it was 34.4 µM (inactive); in the test on HCT-15, 31 µM; with HT-29, 42.8 µM (inactive). Moreover, the GI50 is 53.5 µM (inactive) with Malme-3M; 29.2 µM (inactive) in the test with NCI-H460; 76.9 µM (inactive) in the test with OVCAR-5; 76.9 µM (inactive) with OVCAR-8; 28 µM (inactive) with RXF 393; > 100 µM (inactive) in the test on SK-MEL-2. The figures for the GI50 in the test on SK-MEL-5, in the test on SNB-19 and with TK-10 were 52.6 µM (inactive), 50 µM (inactive) and > 100 µM (inactive), respectively.
For `O=C1c2c(nc3ccccc3c2-c2ccccc2)CN1Nc1ccccc1`, the GI50 in the test on 786-0, with CCRF-CEM, in the test on COLO 205, in the test on EKVX, in the test on HCT-116 and in the test on HT-29 was > 100 µM (inactive) in each case. The GI50 with Malme-3M, with OVCAR-5, in the test on OVCAR-8, in the test with RPMI-8226, in the test on SK-MEL-2 and in the test with SK-MEL-5 was > 100 µM (inactive) each time. The GI50 in the test on TK-10 and in the test with UACC-257 was > 100 µM (inactive) each time.
Turning to `O=C1c2ccccc2NC1(c1ccccc1)c1c(-c2ccccc2)[nH]c2ccccc12` (stereo not drawn), the GI50 is 18.2 µM (inactive) with 786-0; 6.3 µM (inactive) in the test on CCRF-CEM; 6.12 µM (inactive) in the test on COLO 205; 35.2 µM (inactive) in the test with EKVX; 7.28 µM (inactive) in the test on HCT-116; 13.4 µM with HCT-15. The GI50 with HT-29 is 17.9 µM (inactive); in the test with NCI-H460, 17.5 µM (inactive); in the test on OVCAR-8, 24.9 µM (inactive); in the test with RPMI-8226 it was 3.88 µM (inactive); with RXF 393, 6.22 µM (inactive); in the test with SK-MEL-2 it was 11.9 µM (inactive). For the same compound, the values for the GI50 in the test on SNB-19 and in the test on UACC-257 were 37.3 µM (inactive) and 44 µM (inactive), respectively.
For `c1ccc2c(c1)C1CCCCCC21N1CCOCC1` (stereo not drawn), the GI50 in the test on 786-0 is > 100 µM (inactive); in the test on CCRF-CEM it was 97.7 µM (inactive); in the test with COLO 205, > 100 µM (inactive); with HCT-116, 54.2 µM (inactive); with HCT-15 it was 52 µM; in the test with HT-29, 86.3 µM (inactive). For the same compound, the GI50 with NCI-H460 is 69 µM (inactive); with OVCAR-5, > 100 µM (inactive); in the test with OVCAR-8, > 100 µM (inactive); in the test with RXF 393, > 100 µM (inactive); with SK-MEL-2 it was > 100 µM (inactive); in the test on SK-MEL-5, 44.2 µM (inactive). The values for the GI50 in the test on SNB-19, with TK-10 and in the test with UACC-257 were 29.7 µM (inactive), > 100 µM (inactive) and > 100 µM (inactive), respectively.
`Cn1c(=O)nc2n(-c3cc(C(F)(F)F)cc(C(F)(F)F)c3)c3ccccc3nc-2c1=O`: the GI50 was > 100 µM (inactive) in the test with 786-0; > 100 µM (inactive) with COLO 205; > 100 µM (inactive) in the test with EKVX; > 100 µM (inactive) in the test on HCT-116; greater than 100 µM with HCT-15; > 100 µM (inactive) in the test with HT-29. For the same compound, the GI50 with Malme-3M was > 100 µM (inactive); with NCI-H460 it was > 100 µM (inactive); in the test on OVCAR-5, > 100 µM (inactive); in the test with OVCAR-8, > 100 µM (inactive); in the test with RPMI-8226, > 100 µM (inactive); in the test on RXF 393, 75.7 µM (inactive). The GI50 was > 100 µM (inactive) with SK-MEL-2; 8.18 µM (inactive) in the test on SK-MEL-5; 49 µM (inactive) in the test on SNB-19; > 100 µM (inactive) in the test on TK-10; > 100 µM (inactive) with UACC-257.
